Reference: patent US11555036B2, “FGFR4 inhibitor, preparation method therefor and pharmaceutical use thereof” (Abbisko Therapeutics Co., Ltd., priority 2016, dated 2023)

Columns and labels:
[1] = system: Huh7 hepatocellular carcinoma cells; assay: FGFR4 cell proliferation experiment, Cell Titer Glo (CTG); assay type: cell-based; conditions: HuH-7 cells, 3 days; for IC50: concentration leading to absolute half growth inhibition; for EC50: concentration leading to half maximal growth inhibition
Outline: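 Cells treated with 5-fold serial dilutions starting at 10 μM for 3 days at 37° C, 5% CO2. Proliferation/survival quantified as cellular ATP by CellTiter-Glo luminescence.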

FGFR4 = FGFR4 (Homo sapiens, UniProt P22455); assay: FGFR4 Caliper Assay (in vitro biochemical kinase analysis of FGFR4); conditions: read-out: Enzymatic activity FGFR4 IC50
Outline: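 Kinase reaction at 30° C for 40 min in 50 mM HEPES pH 7.5, 16 mM MgCl2, 1 mM DTT, 0.6% DMSO, stopped with EDTA. Phosphorylated and unphosphorylated fluorescent peptides separated by Caliper microfluidic mobility shift. IC50 by non-linear regression of percent inhibition.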

Chain of FGFR4 (P22455 22-802): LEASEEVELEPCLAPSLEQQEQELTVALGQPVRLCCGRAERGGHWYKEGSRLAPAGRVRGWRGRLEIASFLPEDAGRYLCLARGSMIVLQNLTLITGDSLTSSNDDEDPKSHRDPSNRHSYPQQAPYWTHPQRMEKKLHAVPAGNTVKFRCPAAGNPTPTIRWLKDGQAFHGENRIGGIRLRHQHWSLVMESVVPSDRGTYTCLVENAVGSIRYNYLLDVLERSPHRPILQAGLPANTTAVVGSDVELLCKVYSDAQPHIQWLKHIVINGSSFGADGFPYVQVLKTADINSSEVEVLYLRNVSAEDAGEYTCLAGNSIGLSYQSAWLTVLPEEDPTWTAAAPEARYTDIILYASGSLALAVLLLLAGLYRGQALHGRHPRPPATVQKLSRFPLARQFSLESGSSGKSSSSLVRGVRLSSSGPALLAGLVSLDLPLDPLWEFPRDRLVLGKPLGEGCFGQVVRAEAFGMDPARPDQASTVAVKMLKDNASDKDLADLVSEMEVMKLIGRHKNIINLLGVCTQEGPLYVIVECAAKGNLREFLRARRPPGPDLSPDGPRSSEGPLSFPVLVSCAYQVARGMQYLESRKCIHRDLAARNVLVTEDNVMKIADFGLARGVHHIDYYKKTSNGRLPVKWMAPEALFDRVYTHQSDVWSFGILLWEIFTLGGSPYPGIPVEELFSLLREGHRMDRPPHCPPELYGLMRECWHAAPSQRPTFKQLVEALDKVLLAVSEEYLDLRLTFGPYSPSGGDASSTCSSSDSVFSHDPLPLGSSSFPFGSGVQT

Compound | IC50 ([1]; Homo sapiens, Huh-7, 72 h) | EC50 ([1]; Homo sapiens, Huh-7, 72 h) | IC50 (FGFR4) | IC50 [1] | EC50 [1]
C=CC(=O)N[C@H]1CCOC[C@H]1Nc1ncc2cc(-c3c(F)c(OC)cc(OC)c3F)nc(N3CCC(OC)CC3)c2n1 [Example 795, N-((3S,4S)-3-((6-(2,6-difluoro-3,5-dimethoxyphenyl)-8-(4-methoxy-piperidin-1-yl)pyrido[3,4-d]pyrimidin-2-yl)amino)tetrahydro-2H-pyran-4-yl)acrylamide] | 11.8 nM | 9.5 nM | 7.5 nM | – | –
C=CC(=O)N[C@H]1CCOC[C@H]1Nc1ncc2cc(-c3c(F)c(OC)cc(OC)c3F)nc(N3CC4CC(C3)O4)c2n1 [Example 796, N-((3S,4S)-3-((8-(6-oxa-3-aza-bicyclo[3.1.1]heptan-3-yl)-6-(2,6-difluoro-3,5-dimethoxyphenyl)py-rido[3,4-d]pyrimidin-2-yl)a-mino)tetrahydro-2H-pyran-4-yl)acrylamide] | 47.8 nM | 38 nM | 23 nM | – | –
N-((3S,4S)-3-((6-(2,6-dichloro-3,5-di- methoxyphenyl)-8-(methylamino)py- rido[3,4-d]pyrimidin-2-yl)amino)tetra- hydro-2H-pyran-4-yl)acrylamide [Example 510] | – | – | 29 nM | 116 nM | 75.2 nM
